Biological target: human Nav1.8 (Homo sapiens (Human), UniProt Q9Y5Y9)
Assay: E-VIPR optical membrane potential assay with electrical stimulation
Type: cell-based
Conditions: HEK cells expressing human Nav1.8
Description: Sodium channels are voltage-dependent proteins that can be activated by inducing membrane voltage changes by applying electric fields. […] The instrument comprises a microtiter plate handler, an optical system for exciting the coumarin dye while simultaneously recording the coumarin and oxonol emissions, a waveform generator, a current- or voltage-controlled amplifier, and a device for inserting electrodes in well. Under integrated computer control, this instrument passes user-programmed electrical stimulus protocols to cells within the wells of the microtiter plate.
24 hours before the assay on E-VIPR, HEK cells expressing human Nav1.8 were seeded in 384-well poly-lysine coated plates at 15,000-20,000 cells per well. […] Cells were grown in vented cap flasks, in 90% humidity and 5% CO2.
To make the solution added volume of 10% Pluronic F127 stock equal to volumes of CC2-DMPE+DiSBAC6(3). The order of preparation was first mixing Pluronic and CC2-DMPE, then adding DiSBAC6(3) while vortexing, then adding Bath1+β-Cyclodextrin.
1) Pre-spotted compounds (in neat DMSO) into compound plates. […] Final compound plate volume was 80 μL (80-fold intermediate dilution from 1 μL DMSO spot; 160-fold final dilution after transfer to cell plate).
2) Prepared Hexyl Dye Solution.
3) Prepared cell plates. On the day of the assay, medium was aspirated and cells were washed three times with 100 μL of Bath1 Solution, maintaining 25 μL residual volume in each well.
4) Dispensed 25 μL per well of Hexyl Dye Solution into cell plates. Incubated for 20-35 minutes at room temp or ambient conditions.
5) Dispensed 80 μL per well of Bath1 into compound plates. Acid Yellow-17 (1 mM) was added and Potassium Chloride was altered from 4.5 to 20 mM depending on the NaV subtype and assay sensitivity.
6) Washed cell plates three times with 100 μL per well of Bath1, leaving 25 μL of residual volume. Then transferred 25 uL per well from Compound Plates to Cell Plates. Incubated for 20-35 minutes at room temp/ambient condition.
7) Read Plate on E-VIPR. […] A pre-stimulus recording was performed for 0.5 seconds to obtain the un-stimulated intensities baseline. The stimulatory waveform was followed by 0.5 seconds of post-stimulation recording to examine the relaxation to the resting state.
Data was analyzed and reported as normalized ratios of emission intensities measured in the 460 nm and 580 nm channels. The response as a function of time was reported as the ratios obtained using the following formula: […]
The data was further reduced by calculating the initial (Ri) and final (Rf) ratios. These were the average ratio values during part or all of the pre-stimulation period, and during sample points during the stimulation period. The response to the stimulus R=Rf/Ri was then calculated and reported as a function of time.
Control responses were obtained by performing assays in the presence of a compound with the desired properties (positive control), such as tetracaine, and in the absence of pharmacological agents (negative control). Responses to the negative (N) and positive (P) controls were calculated as above. The compound antagonist activity A is defined as:
[formula] where R is the ratio response of the test compound

Chain of human Nav1.8 (Q9Y5Y9 whole entry): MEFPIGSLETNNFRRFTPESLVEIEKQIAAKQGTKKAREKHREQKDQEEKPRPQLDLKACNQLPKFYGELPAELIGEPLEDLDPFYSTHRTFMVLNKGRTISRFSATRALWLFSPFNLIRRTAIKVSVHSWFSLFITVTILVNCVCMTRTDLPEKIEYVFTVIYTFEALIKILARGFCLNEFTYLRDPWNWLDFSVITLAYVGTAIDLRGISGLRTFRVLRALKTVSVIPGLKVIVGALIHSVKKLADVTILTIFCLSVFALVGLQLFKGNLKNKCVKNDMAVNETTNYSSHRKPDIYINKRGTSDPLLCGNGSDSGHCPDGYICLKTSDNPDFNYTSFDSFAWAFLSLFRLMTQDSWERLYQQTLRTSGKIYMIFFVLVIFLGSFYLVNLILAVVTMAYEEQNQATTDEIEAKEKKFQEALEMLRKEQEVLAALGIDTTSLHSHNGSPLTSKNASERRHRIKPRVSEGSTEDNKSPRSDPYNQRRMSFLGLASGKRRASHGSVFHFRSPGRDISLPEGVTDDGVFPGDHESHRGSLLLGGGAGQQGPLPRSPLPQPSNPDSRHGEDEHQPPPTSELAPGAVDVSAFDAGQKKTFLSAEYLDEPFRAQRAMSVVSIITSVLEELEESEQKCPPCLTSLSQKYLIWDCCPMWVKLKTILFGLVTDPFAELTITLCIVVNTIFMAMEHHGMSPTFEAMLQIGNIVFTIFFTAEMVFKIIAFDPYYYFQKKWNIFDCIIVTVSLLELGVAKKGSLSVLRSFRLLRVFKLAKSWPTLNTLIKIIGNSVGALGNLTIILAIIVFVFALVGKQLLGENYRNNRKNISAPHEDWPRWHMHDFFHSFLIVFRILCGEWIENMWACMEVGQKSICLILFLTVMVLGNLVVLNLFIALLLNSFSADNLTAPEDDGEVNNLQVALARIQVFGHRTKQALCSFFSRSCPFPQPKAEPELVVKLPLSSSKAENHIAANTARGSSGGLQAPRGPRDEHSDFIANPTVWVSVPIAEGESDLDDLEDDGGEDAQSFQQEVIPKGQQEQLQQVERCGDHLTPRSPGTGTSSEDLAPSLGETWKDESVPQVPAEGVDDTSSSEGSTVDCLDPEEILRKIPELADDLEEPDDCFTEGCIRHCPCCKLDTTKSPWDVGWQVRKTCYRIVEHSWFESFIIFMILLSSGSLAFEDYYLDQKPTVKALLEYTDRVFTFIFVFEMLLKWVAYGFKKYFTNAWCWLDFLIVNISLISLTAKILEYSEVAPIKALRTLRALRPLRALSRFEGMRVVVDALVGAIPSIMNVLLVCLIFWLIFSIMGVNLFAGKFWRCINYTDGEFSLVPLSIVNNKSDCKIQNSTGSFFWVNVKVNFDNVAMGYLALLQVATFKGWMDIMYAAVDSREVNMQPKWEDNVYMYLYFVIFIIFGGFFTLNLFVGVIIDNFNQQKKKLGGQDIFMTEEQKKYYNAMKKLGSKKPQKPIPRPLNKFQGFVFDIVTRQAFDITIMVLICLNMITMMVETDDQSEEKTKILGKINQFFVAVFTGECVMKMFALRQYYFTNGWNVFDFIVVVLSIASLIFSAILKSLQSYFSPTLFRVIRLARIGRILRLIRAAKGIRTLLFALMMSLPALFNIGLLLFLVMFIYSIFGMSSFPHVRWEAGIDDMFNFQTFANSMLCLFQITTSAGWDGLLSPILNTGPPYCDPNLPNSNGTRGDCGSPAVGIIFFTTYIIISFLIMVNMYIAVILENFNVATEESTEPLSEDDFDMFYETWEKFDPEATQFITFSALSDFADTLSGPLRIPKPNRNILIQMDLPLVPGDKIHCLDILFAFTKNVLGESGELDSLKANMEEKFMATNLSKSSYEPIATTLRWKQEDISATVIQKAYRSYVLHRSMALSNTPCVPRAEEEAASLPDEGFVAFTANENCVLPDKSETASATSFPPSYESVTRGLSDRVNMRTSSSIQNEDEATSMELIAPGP

SMILES	IC50 [µM]
O=C(Nc1cc[nH]c(=O)c1)c1ccc(C(F)(F)F)cc1Oc1ccccc1OC(F)(F)F [Compound 80, N-(2-oxo-1,2-dihydropyridin-4-yl)-2-(2-(trifluoromethoxy)phenoxy)-4-(trifluoromethyl)benzamide]	0.105
COc1ccc(Oc2cc(C(F)(F)F)ccc2C(=O)Nc2cc[nH]c(=O)c2)c(Cl)c1F [Compound 110, 2-(2-chloro-3-fluoro-4-methoxyphenoxy)-N-(2-oxo-1,2-dihydropyridin-4-yl)-4-(trifluoromethyl)benzamide]	0.89
Cc1cc(F)ccc1Oc1ccc(C(F)(F)F)cc1C(=O)Nc1cc(Cl)[nH]c(=O)c1 [Compound 60, N-(6-chloro-2-oxo-1,2-dihydropyridin-4-yl)-2-(4-fluoro-2-methylphenoxy)-5-(trifluoromethyl)benzamide]	0.126
COc1ccc(Oc2cc(C(F)(F)F)ccc2C(=O)Nc2cc[nH]c(=O)c2)cc1F [Compound 81, 2-(3-fluoro-4-methoxyphenoxy)-N-(2-oxo-1,2-dihydropyridin-4-yl)-4-(trifluoromethyl)benzamide]	0.026
Cc1cc(F)ccc1Oc1ccc(OC(F)(F)F)cc1C(=O)Nc1cc[nH]c(=O)c1 [Compound 40, 2-(4-fluoro-2-methylphenoxy)-N-(2-oxo-1,2-dihydropyridin-4-yl)-5-(trifluoromethoxy)benzamide]	0.04
O=C(Nc1cc[nH]c(=O)c1)c1cc(F)ccc1Oc1ccc(C2CC2)cc1 [Compound 96, 2-(4-cyclopropylphenoxy)-5-fluoro-N-(2-oxo-1,2-dihydropyridin-4-yl)benzamide]	0.4
O=C(Nc1cc[nH]c(=O)c1)c1ccc(C(F)(F)F)cc1OC1C[C@@H]2C[C@@H]2C1 (stereo partly drawn) [Compound 125, 2-((1R,5S)-bicyclo[3.1.0]hexan-3-yloxy)-N-(2-oxo-1,2-dihydropyridin-4-yl)-4-(trifluoromethyl)benzamide]	17.5
COc1cc(F)ccc1Oc1ccc(OC(F)(F)F)cc1C(=O)Nc1cc[nH]c(=O)c1 [Compound 42, 2-(4-fluoro-2-methoxyphenoxy)-N-(2-oxo-1,2-dihydropyridin-4-yl)-5-(trifluoromethoxy)benzamide]	0.068
COc1cc(F)ccc1Oc1cc(Cl)ccc1C(=O)Nc1cc[nH]c(=O)c1 [Compound 16, 4-chloro-2-(4-fluoro-2-methoxyphenoxy)-N-(2-oxo-1,2-dihydropyridin-4-yl)benzamide]	0.014
Cc1ncccc1Oc1ccc(OC(F)(F)F)cc1C(=O)Nc1cc[nH]c(=O)c1 [Compound 151, 2-((2-methylpyridin-3-yl)oxy)-N-(2-oxo-1,2-dihydropyridin-4-yl)-5-(trifluoromethoxy)benzamide]	8.4
Cc1cc(C)c(Oc2ccc(F)cc2C(=O)Nc2cc[nH]c(=O)c2)cc1C [Compound 105, 5-fluoro-N-(2-oxo-1,2-dihydropyridin-4-yl)-2-(2,4,5-trimethylphenoxy)benzamide]	3.55
COc1ccc(Oc2ccc(F)cc2C(=O)Nc2cc[nH]c(=O)c2)cc1 [Compound 104, 5-fluoro-2-(4-methoxyphenoxy)-N-(2-oxo-1,2-dihydropyridin-4-yl)benzamide]	1.15
O=C(Nc1cc[nH]c(=O)c1)c1cc(C(F)(F)F)ccc1OCC1CCCC1 [Compound 130, 2-(cyclopentylmethoxy)-N-(2-oxo-1,2-dihydropyridin-4-yl)-5-(trifluoromethyl)benzamide]	5.1
O=C(Nc1cc[nH]c(=O)c1)c1ccc(Cl)cc1Oc1ccc(C(F)(F)F)nc1 [Compound 143, 4-chloro-N-(2-oxo-1,2-dihydropyridin-4-yl)-2-((6-(trifluoromethyl)pyridin-3-yl)oxy)benzamide]	3.35
O=C(Nc1cc[nH]c(=O)c1)c1cc(C(F)(F)F)ccc1Oc1ccc(OC(F)F)cc1 [Compound 73, 2-(4-(difluoromethoxy)phenoxy)-N-(2-oxo-1,2-dihydropyridin-4-yl)-5-(trifluoromethyl)benzamide]	0.035
O=C(Nc1cc[nH]c(=O)c1)c1cc(OC(F)(F)F)ccc1OCCCC(F)(F)F [Compound 139, N-(2-oxo-1,2-dihydropyridin-4-yl)-2-(4,4,4-trifluorobutoxy)-5-(trifluoromethoxy)benzamide]	3.05
O=C(Nc1cc[nH]c(=O)c1)c1ccc(C(F)(F)F)cc1OCc1cc(F)ccc1O [Compound 159, 2-((5-fluoro-2-hydroxybenzyl)oxy)-N-(2-oxo-1,2-dihydropyridin-4-yl)-4-(trifluoromethyl)benzamide]	2.6
COc1ccc(F)cc1Oc1ccc(C(F)(F)F)cc1C(=O)Nc1cc[nH]c(=O)c1 [Compound 52, 2-(5-fluoro-2-methoxyphenoxy)-N-(2-oxo-1,2-dihydropyridin-4-yl)-5-(trifluoromethyl)benzamide]	0.094
Cc1cc(Cl)ccc1Oc1ccc(C(F)(F)F)cc1C(=O)Nc1cc[nH]c(=O)c1 [Compound 50, 2-(4-chloro-2-methylphenoxy)-N-(2-oxo-1,2-dihydropyridin-4-yl)-5-(trifluoromethyl)benzamide]	0.019
COc1ccc(Oc2ccc(C(F)(F)F)cc2C(=O)Nc2cc[nH]c(=O)c2)cc1 [Compound 45, 2-(4-methoxyphenoxy)-N-(2-oxo-1,2-dihydropyridin-4-yl)-5-(trifluoromethyl)benzamide]	0.064
CC(C)c1ccc(Oc2ccc(F)cc2C(=O)Nc2cc[nH]c(=O)c2)cc1 [Compound 99, 5-fluoro-2-(4-isopropylphenoxy)-N-(2-oxo-1,2-dihydropyridin-4-yl)benzamide]	5.15
Cc1c[nH]c(=O)cc1NC(=O)c1ccc(C(F)(F)F)cc1Oc1ccc(F)cc1C [Compound 86, 2-(4-fluoro-2-methylphenoxy)-N-(5-methyl-2-oxo-1,2-dihydropyridin-4-yl)-4-(trifluoromethyl)benzamide]	3.55
COc1ccc(Oc2ccc(C(F)(F)F)cc2C(=O)Nc2cc[nH]c(=O)c2)c(C)c1 [Compound 63, 2-(4-methoxy-2-methylphenoxy)-N-(2-oxo-1,2-dihydropyridin-4-yl)-5-(trifluoromethyl)benzamide]	0.018
O=C(Nc1cc[nH]c(=O)c1)c1ccc(Cl)cc1Oc1ccc(F)cc1Cl [Compound 14, 4-chloro-2-(2-chloro-4-fluorophenoxy)-N-(2-oxo-1,2-dihydropyridin-4-yl)benzamide]	0.065
O=C(Nc1cc[nH]c(=O)c1)c1cc(C(F)(F)F)ccc1Oc1ccc(Cl)cc1 [Compound 58, 2-(4-chlorophenoxy)-N-(2-oxo-1,2-dihydropyridin-4-yl)-5-(trifluoromethyl)benzamide]	0.054
Cc1cc(C)c(Oc2ccc(C(F)(F)F)cc2C(=O)Nc2cc[nH]c(=O)c2)cc1C [Compound 93, N-(2-oxo-1,2-dihydropyridin-4-yl)-5-(trifluoromethyl)-2-(2,4,5-trimethylphenoxy)benzamide]	1.45
COc1cc(C)ccc1Oc1ccc(C(F)(F)F)cc1C(=O)Nc1cc[nH]c(=O)c1 [Compound 47, 2-(2-methoxy-4-methylphenoxy)-N-(2-oxo-1,2-dihydropyridin-4-yl)-5-(trifluoromethyl)benzamide]	0.135
Cc1ncccc1Oc1cc(C(F)(F)F)ccc1C(=O)Nc1cc[nH]c(=O)c1 [Compound 147, 2-((2-methylpyridin-3-yl)oxy)-N-(2-oxo-1,2-dihydropyridin-4-yl)-4-(trifluoromethyl)benzamide]	3.8
